Assay [1] concerns the target T1, STAT6 (Homo sapiens, UniProt P42226).
T1 construct: These cells express endogenous STAT6; host or cells: HeLa LgBiT clone 4.14
T1 sequence (P42226 1-847): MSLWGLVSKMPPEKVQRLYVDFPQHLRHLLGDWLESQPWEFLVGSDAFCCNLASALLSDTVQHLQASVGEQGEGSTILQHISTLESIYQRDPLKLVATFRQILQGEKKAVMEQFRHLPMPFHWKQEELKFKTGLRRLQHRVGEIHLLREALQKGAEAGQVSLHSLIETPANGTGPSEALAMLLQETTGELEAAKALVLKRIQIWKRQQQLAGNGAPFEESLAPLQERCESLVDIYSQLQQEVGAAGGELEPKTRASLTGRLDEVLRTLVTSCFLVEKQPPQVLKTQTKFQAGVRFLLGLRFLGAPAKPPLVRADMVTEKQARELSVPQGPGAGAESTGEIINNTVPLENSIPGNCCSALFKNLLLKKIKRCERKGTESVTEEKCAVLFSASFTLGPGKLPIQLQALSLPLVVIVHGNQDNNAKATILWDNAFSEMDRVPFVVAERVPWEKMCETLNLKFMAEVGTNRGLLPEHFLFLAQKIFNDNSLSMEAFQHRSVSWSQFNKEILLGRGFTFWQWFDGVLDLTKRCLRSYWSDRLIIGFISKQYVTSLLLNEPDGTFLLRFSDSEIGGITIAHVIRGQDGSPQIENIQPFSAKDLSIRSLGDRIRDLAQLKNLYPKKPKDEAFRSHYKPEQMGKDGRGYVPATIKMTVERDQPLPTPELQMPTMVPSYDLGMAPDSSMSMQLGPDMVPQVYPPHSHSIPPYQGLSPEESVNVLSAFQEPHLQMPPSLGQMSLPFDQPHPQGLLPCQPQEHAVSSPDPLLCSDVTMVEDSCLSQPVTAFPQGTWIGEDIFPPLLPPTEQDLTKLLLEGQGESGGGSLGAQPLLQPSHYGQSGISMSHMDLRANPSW
Put plainly: Stat6 Degrader Assay (HiBiT based, HeLa LgBiT clone 4.14). The following applies: HeLa LgBiT clone 4.14 HiBiT-STAT6, 4-24 h incubation; values given for compounds with >80% Emax; geometric mean; read-out: STAT6 degradation DC50. Format: cell-based. An outline of the steps:
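Luminescence from HiBiT-STAT6 complementing stably expressed LgBiT in HeLa clone 4.14 reports remaining STAT6 protein. Cells (5000/well) exposed to compound for 4-24 h at 37° C; read 0.5 h after Nano-Glo addition. 100% degradation window set with 50 μM terfenadine; percent degradation plotted against concentration.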
(HiBiT is a short tag that completes a luciferase, so light tracks the accessible tagged protein.)

The test system of assay [2] is Eotaxin-3 release in human whole blood stimulated with IL-4. Put plainly: Human Whole Blood Eotaxin-3 Assay (IL-4 stimulated eotaxin-3 release). Format: cell-based. Particulars: IL-4 stimulation, 48 h, values given for compounds with >80% Emax, geometric mean. Put shortly:
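Eotaxin-3 (CCL26) release measured by MSD kit in plasma supernatant after 48 h IL-4 stimulation ([…]) of human whole blood. Compounds added in triplicate 4-fold dilutions 2 h before stimulation; 0.5% DMSO final, 37° C, 5% CO2.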

The results in this text go back to patent US20250320206A1, “STAT6 DEGRADERS” (Gilead Sciences, Inc., priority 2024, published 2025).

The term DC50 denotes the concentration giving 50% degradation. For orientation: EC50 means the concentration that produces a half-maximal response. A lower EC50 goes with higher potency in that assay. With `CNc1ccn(-c2ccnc3c2cc([C@H](C)N2CCC(c4c(F)cc(C(=O)N5CCC(CN6CCN(Cc7ccc8c(c7)C(C)(C)C(=O)N8C7CCC(=O)NC7=O)C[C@@H]6C)CC5)cc4F)CC2)n3C)c(=O)c1` (stereo partly drawn) [Example 3u80, 3-(5-(((S)-4-((1-(3,5-difluoro-4-(1-((S)-1-(1-methyl-4-(4-(methylamino)-2-oxopyridin-1 (2H)-yl)-1H-pyrrolo[2,3-b]pyridin-2-yl)ethyl)piperidin-4-yl)benzoyl)piperidin-4-yl)methyl)-3-methyl-piperazin-1-yl)methyl)-3,3-dimethyl-2-oxoindolin-1-yl)piperidine-2,6-dione], the DC50 in assay [1] is 0.8 nM. The compound further registered an EC50 in assay [2] of 5 nM.
For `CNc1cc(=O)n(-c2ccnc3c2cc([C@H](C)N2CC=C(c4c(C)cc(C(=O)N(C)c5ccc(C6CCN(Cc7ccc8c(c7)C(C)(C)C(=O)N8C7CCC(=O)NC7=O)CC6)cc5)cc4F)CC2)n3C)cc1F` (stereo partly drawn) [Example 3u233, N-(4-(1-((1-(2,6-dioxopiperidin-3-yl)-3,3-dimethyl-2-oxoindolin-5-yl)methyl)piperidin-4-yl)phenyl)-3-fluoro-4-(1-((S)-1-(4-(5-fluoro-4-(methylamino)-2-oxopyridin-1 (2H)-yl)-1-methyl-1H-pyrrolo[2,3-b]pyridin-2-yl)ethyl)-1,2,3,6-tetrahydropyridin-4-yl)-N,5-dimethylbenzamide] the same measures were 0.2 nM and 1.3 nM.
In the same order, the values of `CNc1ccn(-c2ccnc3c2cc([C@H](C)N2CC=C(c4c(F)cc(C(=O)N5CCC(CN6CCN(Cc7ccc8c(c7)C(C)(C)C(=O)N8[C@H]7CCC(=O)NC7=O)C[C@@H]6C)CC5)cc4F)CC2)n3C)c(=O)c1` (single isomer, unassigned) [Example 3u202] are 1.9 nM and 2.6 nM.
In the same order, the values of `CNc1ccn(-c2ccnc3c2cc(CN2CC=C(c4c(C)cc(C(=O)N(C)c5ccc(C6CCN(Cc7ccc8c(c7)C(C)(C)C(=O)N8C7CCC(=O)NC7=O)CC6)cc5)cc4F)CC2)n3C)c(=O)c1` (centres unmarked) [Example 3u228, N-(4-(1-((1-(2,6-dioxopiperidin-3-yl)-3,3-dimethyl-2-oxoindolin-5-yl)methyl)-piperidin-4-yl)phenyl)-3-fluoro-N,5-dimethyl-4-(1-((1-methyl-4-(4-(methylamino)-2-oxopyridin-1 (2H)-yl)-1H-pyrrolo[2,3-b]pyridin-2-yl)methyl)-1,2,3,6-tetrahydropyridin-4-yl)benzamide] are 0.2 nM and 1.2 nM.
Regarding `CNc1ccn(-c2ccnc3c2cc([C@H](C)N2CC=C(c4c(C)cc(C(=O)N(C)C5CCN(C6CCN(Cc7ccc8c(c7)n(C)c(=O)n8C7CCC(=O)NC7=O)CC6)CC5)cc4F)CC2)n3C)c(=O)c1` (stereo partly drawn) [Example 3u35, N-(1′-((1-(2,6-dioxopiperidin-3-yl)-3-methyl-2-oxo-2,3-dihydro-1H-benzo[d]imidazol-5-yl)methyl)-[1,4′-bipiperidin]-4-yl)-3-fluoro-N,5-dimethyl-4-(1-((S)-1-(1-methyl-4-(4-(methylamino)-2-oxopyridin-1 (2H)-yl)-1H-pyrrolo[2,3-b]pyridin-2-yl)ethyl)-1,2,3,6-tetrahydropyridin-4-yl)benzamide], in assay [1], the DC50 is 9.6 nM. In assay [2], the EC50 came out at 5.5 nM.
In the same order, the values of `CNc1ccn(-c2ccnc3c2cc(CN2CC=C(c4c(F)cc(C(=O)N5CCC(CN6CCN(Cc7ccc8c(c7)n(C)c(=O)n8C7CCC(=O)NC7=O)C[C@@H]6C)CC5)cc4F)CC2)n3C)c(=O)c1` (stereo partly drawn) [Example 3u1, 3-(5-(((S)-4-((1-(3,5-difluoro-4-(1-((1-methyl-4-(4-(methylamino)-2-oxopyridin-1 (2H)-yl)-1H-pyrrolo[2,3-b]pyridin-2-yl)methyl)-1,2,3,6-tetrahydropyridin-4-yl)benzoyl)piperidin-4-yl)methyl)-3-methylpiperazin-1-yl)methyl)-3-methyl-2-oxo-2,3-dihydro-1H-benzo[d]imidazol-1-yl)piperidine-2,6-dione] are 0.9 nM and 1 nM.
For `CNc1cc(=O)n(-c2ccnc3c2cc(CN2CCC(c4c(F)cc(C(=O)N(C)c5ccc(C6CCN(Cc7ccc8c(c7)n(C)c(=O)n8C7CCC(=O)NC7=O)CC6)cc5)cc4F)CC2)n3C)cc1F` (centres unmarked) [Example 3u245, N-(4-(1-((1-(2,6-dioxopiperidin-3-yl)-3-methyl-2-oxo-2,3-dihydro-1H-benzo[d]imidazol-5-yl)methyl)piperidin-4-yl)phenyl)-3,5-difluoro-4-(1-((4-(5-fluoro-4-(methylamino)-2-oxopyridin-1 (2H)-yl)-1-methyl-1H-pyrrolo[2,3-b]pyridin-2-yl)methyl)piperidin-4-yl)-N-methylbenzamide] the same measures were 0.1 nM and 0.1 nM.
Take `CNc1cc(=O)n(-c2ccnc3c2cc(CN2CCC(c4c(F)cc(C(=O)N5CCC(CN6CCN(Cc7ccc8c(c7)C(C)(C)C(=O)N8[C@H]7CCC(=O)NC7=O)CC6)CC5)cc4F)CC2)n3C)cc1F` (single isomer, unassigned) [Example 3u58]: in assay [1], the DC50 was found to be 7.6 nM. Further, a half-maximal response in assay [2] (EC50) required 12.6 nM.
For `C[C@H]1CN(Cc2ccc3c(c2)C2(CC2)C(=O)N3C2CCC(=O)NC2=O)CCN1CC1CCN(C(=O)c2cc(F)c(C3CCN(Cc4cc5c(-n6cc(F)c(N)c(F)c6=O)ccnc5n4C)CC3)c(F)c2)CC1` (stereo partly drawn) [Example 3u96, 3-(5′-(((S)-4-((1-(4-(1-((4-(4-amino-3,5-difluoro-2-oxopyridin-1 (2H)-yl)-1-methyl-1H-pyrrolo[2,3-b]pyridin-2-yl)methyl)piperidin-4-yl)-3,5-difluorobenzoyl)piperidin-4-yl)methyl)-3-methylpiperazin-1-yl)methyl)-2′-oxospiro[cyclopropane-1,3′-indolin]-1′-yl)piperidine-2,6-dione] the same measures were 4.1 nM and 1 nM.
For `CNc1ccn(-c2ccnc3c2cc([C@H](C)N2CC=C(c4c(C)cc(C(=O)N5CCC(CN6CCN(c7ccc8c(c7)n(C7CC7)c(=O)n8[C@H]7CCC(=O)NC7=O)CC6)CC5)cc4F)CC2)n3C)c(=O)c1` (single isomer, unassigned) [Example 3u279] the same measures were 1.4 nM and 1.7 nM.
As to `CNc1cc(=O)n(-c2ccnc3c2cc([C@H](C)N2CC=C(c4c(C)cc(C(=O)N5CCC(CC6CCN(c7ccc8c(c7)C7(CC7)C(=O)N8C7CCC(=O)NC7=O)CC6)CC5)cc4F)CC2)n3C)cc1F` (stereo partly drawn) [Example 3u284, 3-(5′-(4-((1-(3-fluoro-4-(1-((S)-1-(4-(5-fluoro-4-(methylamino)-2-oxopyridin-1 (2H)-yl)-1-methyl-1H-pyrrolo[2,3-b]pyridin-2-yl)ethyl)-1,2,3,6-tetrahydropyridin-4-yl)-5-methylbenzoyl)piperidin-4-yl)methyl)piperidin-1-yl)-2′-oxospiro[cyclopropane-1,3′-indolin]-1′-yl)piperidine-2,6-dione], the 50% degradation concentration (DC50) in assay [1] was determined as 22.6 nM. The same compound came in with an EC50 in assay [2] of 24 nM.
For `CNc1cc(=O)n(-c2ccnc3c2cc([C@H](C)N2CC=C(c4c(C)cc(C(=O)N5CCC(CN6CCN(c7ccc8c(c7)C(C)(C)C(=O)N8[C@@H]7CCC(=O)NC7=O)CC6)CC5)cc4F)CC2)n3C)cc1F` (single isomer, unassigned) [Example 3u286] the same measures were 12.5 nM and 25.2 nM.
For `CNc1cc(=O)n(-c2ccnc3c2cc([C@H](C)N2CC=C(c4c(C)cc(C(=O)N5CCC(CN6CCN(Cc7ccc8c(c7)n(C)c(=O)n8[C@H]7CCC(=O)NC7=O)CC6)CC5)cc4F)CC2)n3C)cc1F` (single isomer, unassigned) [Example 3u14] the same measures were 0.6 nM and 1.2 nM.
